Experimental findings from patent US8936809B2, “Method for treating prostate diseases based on local delivery of active substances” (Lidds AB, priority 2005, dated 2015) are described below.

The series is described as follows: in vivo. To be noted: male, Labrador, dog, iv, 25 mg. The protocol: First, four male dogs (H1-H4) (Labrador, approx. 1 year of age and weight 30 kg) were given 2-hydroxy-flutamide (25 mg) by single bolus doses intravenously during 30 seconds. The intravenous solution base was sterile saline […], sterile polyethylene glycol 400 46% and ethanol (95%) 6%. Blood samples of 1.0 ml were taken from the Cephalic vein at 5, 10, 15, 30, 60, 90, 120, 240, 360, and 600 minutes. The blood samples were immediately centrifuged at 3000 rpm and the plasma samples were frozen at −80° C. until analysis.
Quantification of 2-hydroxy-flutamide in plasma and tissue samples was done by HPLC-MS. HPLC was performed with a Surveyor HPLC system equipped with a CTC Pal autosampler. The analytical column was a Zorbax Eclipse XDB-18 (2.1 mm×50 mm, particle size 5 μm) connected to a guard column. The eluent consisted of solvent A (aqueous formic acid 0.1%) and B (acetonitrile), a linear gradient from 25 to 90% of solvent B in 5 minutes was applied. The proportion of solvent B was then lowered to 25% in one minute and was allowed to equilibrate at this level for two minutes prior to the next injection. The volumetric flow-rate was 200 μL/min and the injection volume was 20 μL. The HPLC column outlet was coupled to a TSQ Quantum Ultra tandem triple quadrupole mass spectrometer (ThermoFinnigan, San José, Calif., USA). The transition of m/z 291 [M-H]^−→205 was used for 2-hydroxy-flutamide and m/z 316 [M-H]^−→273 was used for nilutamide (internal standard). The limit of quantification was 0.50 ng/ml in dog plasma. Calibration samples were prepared by spiking blank plasma samples with 100 μL of solutions of 2-hydroxy-flutamide at different concentrations. […] The accuracies of the analytical runs were calculated as 100*(mean determined concentration in QC sample/spiked concentration) % and the intra-run precisions were calculated as the relative standard deviation (RSD %) of the determined concentrations at each QC level. […]

Broadly, the Cmax is the peak of the concentration-time curve. Usually half-life stands for the time needed for the level to fall by half in the phase considered. Read a low half-life as rapid decline. With `CC(C)(O)C(=O)Nc1ccc([N+](=O)[O-])c(C(F)(F)F)c1` [2-hydroxy-flutamide], the Cmax (Cmax) was 0.835 µg/mL. Further, the half-life is 1.75 ± 0.2 h (elimination half-life) and 1.9 h (t1/2).
